From paper PMC12040169 (PLOS Biology, 2025)

Experiment: in vitro
Settings: human, hela cells, % viability

First: Cc1sc(NC(=O)c2ccc(F)cc2Cl)c(C(=O)NCc2cccnc2)c1C [CBK270319]
Second: COC(=O)c1sccc1NC(=O)c1ccc(F)cc1Cl [CBK270325]
The viability at 28.5 h, 10 µM of the first is lower: 82.9% for the first, 88.2% for the second.

First: NC(=O)c1ccccc1NC(=O)CN1CCN(Cc2cccc(Cl)c2)CC1 [CBK270320]
Second: O=C(O)C1CCCCC1C(=O)N1CCN(Cc2cccc(Cl)c2)CC1 (centres unmarked) [CBK270330]
The viability at 28.5 h, 10 µM of the first is higher: 103% for the first, 85% for the second.

Going from `CCn1cc(S(=O)(=O)N2CCC3(CC2)OCCO3)cn1` [CBK270321] to `CCn1cc(S(=O)(=O)N2CCN(c3cccc(C(F)(F)F)c3)CC2)cn1` [CBK270328], the viability at 28.5 h, 10 µM falls from 112% to 93.6%.

Compared with `Cc1nn(S(=O)(=O)c2cccc3nsnc23)c(C)c1Cl` [CBK270323], `CC(C)(C)c1cn2c3ccccc3nc2n1CCO` [CBK273412] is higher in viability at 28.5 h, 10 µM: 92.6% for the first, 102% for the second.

First: O=S(=O)(c1ccc(Cl)s1)N1CCN(Cc2ccc3c(c2)OCO3)CC1 [CBK270324]
Second: O=C(Nc1ccc2c(c1)OCO2)N1CCN(c2ccc(F)cc2)CC1 [CBK270332]
The viability at 28.5 h, 10 µM of the first is higher: 89.5% for the first, 86.3% for the second.

Compared with `CCCN1CCN(S(=O)(=O)c2ccc(C)cc2)CC1` [CBK270326], `O=C(O)C1C2C=CC(C2)C1C(=O)N1CCN(Cc2ccccc2Cl)CC1` (centres unmarked) [CBK270334] is higher in viability at 28.5 h, 10 µM: 90% for the first, 93% for the second.

Compared with `CC(NC(=O)c1cccc(Oc2ccccc2)c1)c1ccncc1` (centres unmarked) [CBK270327], `O=C(NCc1ccco1)c1cccc(Oc2ccccc2)c1` [CBK270333] is lower in viability at 28.5 h, 10 µM: 91.3% for the first, 89.3% for the second.

First: CCN1CCN(C(=O)C2CCCCC2C(=O)O)CC1 (centres unmarked) [CBK270337]
Second: CC1(C)CCCC2=C1CC(C(=O)O)C(C(=O)O)C2 (centres unmarked) [CBK272329]
The viability at 28.5 h, 10 µM of the first is higher: 111% for the first, 97.4% for the second.

Compared with `O=C(Nc1ccc2c(c1)C(=O)NC2=O)c1ccccc1` [CBK270384], `CC(=O)N(C)c1ccc(NC(=O)c2ccccc2C(=O)O)cc1` [CBK270693] is higher in viability at 28.5 h, 10 µM: 86.5% for the first, 97.9% for the second.

Going from `Nc1nonc1-n1nnc(CN2CCCCC2)c1CN1CCCCC1` [CBK270636] to `CN(C)CCOC(=O)C1CCCCCN1C` (centres unmarked) [CBK278175G], the viability at 28.5 h, 10 µM rises from 82.3% to 97.8%.

Compared with `CSc1nc(-c2ccccc2)nc(N)c1C(C)=O` [CBK270762], `O=C(O)CCNC1=Nc2ccccc2CCC1` [CBK278160] is higher in viability at 28.5 h, 10 µM: 90.1% for the first, 101% for the second.

First: O=C(O)c1ccc(N2C(=O)CC(N3CCC(Cc4ccccc4)CC3)C2=O)cc1 (centres unmarked) [CBK273484]
Second: O=C(O)CCSC1CC(=O)N(c2ccc(F)cc2)C1=O (centres unmarked) [CBK276120]
The viability at 28.5 h, 10 µM of the first is higher: 93.4% for the first, 89.9% for the second.

Going from `O=C(O)C1Nc2c(C(=O)N3CCOCC3)cccc2C2C=CCC12` (centres unmarked) [CBK275006] to `c1ccc2c(CNCCN3CCOCC3)cccc2c1` [CBK278156C], the viability at 28.5 h, 10 µM falls from 104% to 90.9%.

First: O=C(CSCc1ccc(Cl)cc1Cl)Nc1ccc(O)cc1C(=O)O [CBK275322]
Second: O=C(O)c1ccc(NC(=O)c2ccccc2F)c(NC(=O)c2ccccc2F)c1 [CBK275363]
The viability at 28.5 h, 10 µM of the first is lower: 95% for the first, 101% for the second.

First: CCOc1ccccc1NC(=O)CCCC(=O)O [CBK275986]
Second: CSCCC(NC(=O)c1ccc(C#CC(C)(C)O)cc1)C(=O)O (centres unmarked) [CBK276698]
The viability at 28.5 h, 10 µM of the first is higher: 98.9% for the first, 93.9% for the second.

First: COCCCNCCn1cnc2c(N)ncnc21 [CBK277059]
Second: COc1c(Cl)cc(Cl)cc1CNCCCN1CCOCC1 [CBK278165C]
The viability at 28.5 h, 10 µM of the first is higher: 88.9% for the first, 88.8% for the second.

Going from `CC1CCC2(CC1)N=C(N)Nc1nc3ccccc3n12` (centres unmarked) [CBK277657] to `Fc1ccccc1COc1cccc(CNCCN2CCOCC2)c1` [CBK278148C], the viability at 28.5 h, 10 µM rises from 88.4% to 102%.

First: CN1C2CCC1CC(OC(=O)CNC1CCCCC1)C2 (centres unmarked) [CBK278161C]
Second: CCc1nnc(N/N=C/c2ccc(OCc3ccc(F)cc3Cl)c(OC)c2)n1N [CBK278173C]
The viability at 28.5 h, 10 µM of the first is higher: 93.6% for the first, 87.1% for the second.

In the case of `O=C1C=CC2=C3Oc4c(ccc5cc(O)ccc45)C(c4ccccc4C(=O)O)C3C=CC2=C1` (centres unmarked) [CBK278169N], the viability at 28.5 h, 10 µM is reported as 82.8%.

Same assay, conditions: human, hela cells, % viability, bulk resorufin, single well

With `O=C1NC(=O)N(c2ccc(Br)cc2)C(=O)/C1=C/c1ccc(O)c(O)c1` [CBK278167] the viability at 28.5 h, 10 µM was 104%.
